Tests used:
[1] = HPLC-based LogD determination; settings: for tR (retention time used for LogD determination): HPLC-UV 254 nm, Nucleodur C18 Gravity, 50 mM ammonium acetate pH 7.4 (A) / acetonitrile (B), 0 min 0 % B to 20 min 95 % B, 1 mL/min, acetylated peptides, triplicates
[2] = set-up: method as in earlier work; settings: octanol-water partitioning, received from literature; ref 3–5 (supplement); cited from earlier work
Excerpt: page 19: Table S8: Reference compounds used to establish a calibration curve for LogD determination.

[3] = biological target: T1, 14-3-3ζ full length His-tag (Homo sapiens, UniProt P63104); test: biochemical; format: binding; settings: for BEI (binding efficiency index): BEI = pKd/(MW × 10^–3), pKd from direct FP of FITC-labelled peptides
T1 sequence (P63104 1-245): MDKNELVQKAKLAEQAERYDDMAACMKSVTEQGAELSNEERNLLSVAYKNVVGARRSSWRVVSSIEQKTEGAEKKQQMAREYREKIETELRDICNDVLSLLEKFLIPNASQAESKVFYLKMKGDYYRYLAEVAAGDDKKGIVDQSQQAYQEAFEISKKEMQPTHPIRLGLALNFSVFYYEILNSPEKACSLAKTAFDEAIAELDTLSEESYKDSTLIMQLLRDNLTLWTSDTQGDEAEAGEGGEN

[4] = biological target: T1, 14-3-3ζ full length His-tag; test: biochemical

COc1ccc([C@@H]2Sc3ccccc3N(CCN(C)C)C(=O)[C@@H]2OC(C)=O)cc1 [Diltiazem, reference compound]
tR (retention time used for LogD determination) [1]: 15.31±0.002 min | LogD of reference compound [2]: 2.70

CC(CCc1ccccc1)NCC(O)c1ccc(O)c(C(N)=O)c1 (stereo not drawn) [Labetolol, reference compound]
tR (retention time used for LogD determination) [1]: 12.14±0.010 min

COCCc1ccc(OCC(O)CNC(C)C)cc1 (stereo not drawn) [Metoprolol, reference compound]
tR (retention time used for LogD determination) [1]: 10.21±0.024 min | LogD of reference compound [2]: -0.06

CC(C)C[C@H](NC(=O)[C@H](CC(=O)O)NC(=O)[C@H](CC(C)C)NC(=O)[C@]1(C)CCCCCCCC[C@@](C)(NC(=O)CNC(=O)[C@H](CCC(N)=O)NC(=O)COCCOCCNC(=S)Nc2ccc3c(c2)C(=O)OC32c3ccc(O)cc3Oc3cc(O)ccc32)C(=O)N[C@@H](CC(C)C)C(=O)N[C@@H](CC(=O)O)C(=O)N1)C(=O)N[C@@H](C)C(=O)N[C@@H](C)C(N)=O [S430A]
Kd [3]: 72 ± 5 nM

CC(=O)N[C@@H](CCC(N)=O)C(=O)NCC(=O)N[C@]1(C)CCCCCCCC[C@@](C)(C(=O)N[C@@H](CC(C)C)C(=O)N[C@@H](CC(=O)O)C(=O)N[C@@H](CC(C)C)C(=O)N[C@@H](C)C(=O)N[C@@H](CO)C(N)=O)NC(=O)[C@H](CC(=O)O)NC(=O)[C@H](CC(C)C)NC1=O [compound 1]
tR (retention time used for LogD determination) [1]: 12.58±0.197 min | chromatographic logD ([1]; pH 7.4): 1.15 ± 0.068

CC(C)C[C@H](NC(=O)[C@H](CC(=O)O)NC(=O)[C@H](CC(C)C)NC(=O)[C@]1(C)CCCCCCCC[C@@](C)(NC(=O)CNC(=O)[C@H](CCC(N)=O)NC(=O)COCCOCCNC(=S)Nc2ccc3c(c2)C(=O)OC32c3ccc(O)cc3Oc3cc(O)ccc32)C(=O)N[C@@H](CC(C)C)C(=O)N[C@@H](CC(=O)O)C(=O)N1)C(=O)N[C@@H](C)C(N)=O [compound 2]
Kd [3]: 355 nM | BEI (binding efficiency index) [3]: 4.07

CC(C)C[C@H](NC(=O)[C@H](CC(=O)O)NC(=O)[C@H](CC(C)C)NC(=O)[C@]1(C)CCCCCCCC[C@@](C)(NC(=O)CNC(=O)[C@H](CCC(N)=O)NC(=O)COCCOCCNC(=S)Nc2ccc3c(c2)C(=O)OC32c3ccc(O)cc3Oc3cc(O)ccc32)C(=O)N[C@@H](CC(C)C)C(=O)N[C@@H](CC(=O)O)C(=O)N1)C(N)=O [compound 3]
Kd [3]: 2880 nM | BEI (binding efficiency index) [3]: 3.66

CC(C)C[C@@H]1NC(=O)[C@](C)(NC(=O)CNC(=O)[C@H](CCC(N)=O)NC(=O)COCCOCCNC(=S)Nc2ccc3c(c2)C(=O)OC32c3ccc(O)cc3Oc3cc(O)ccc32)CCCCCCCC[C@@](C)(C(=O)N[C@@H](CC(C)C)C(=O)N[C@@H](CC(=O)O)C(N)=O)NC(=O)[C@H](CC(=O)O)NC1=O [compound 4]
Kd [3]: > 100000 nM | BEI (binding efficiency index) [3]: 2.86

CC(=O)NCC(=O)N[C@]1(C)CCCCCCCC[C@@](C)(C(=O)N[C@@H](CC(C)C)C(=O)N[C@@H](CC(=O)O)C(=O)N[C@@H](CC(C)C)C(N)=O)NC(=O)[C@H](CC(=O)O)NC(=O)[C@H](CC(C)C)NC1=O [compound 5]
tR (retention time used for LogD determination) [1]: 12.75±0.003 min | chromatographic logD ([1]; pH 7.4): 1.26 | Δlog D relative to 7 (H/H) ([1]; pH 7.4): 0.63

CC(C)C[C@H](NC(=O)[C@H](CC(=O)O)NC(=O)[C@H](CC(C)C)NC(=O)[C@]1(C)CCCCCCCC[C@@](C)(NC(=O)COCCOCCNC(=S)Nc2ccc3c(c2)C(=O)OC32c3ccc(O)cc3Oc3cc(O)ccc32)C(=O)N[C@@H](CC(C)C)C(=O)N[C@@H](CC(=O)O)C(=O)N1)C(N)=O [compound 6]
Kd [3]: 12300 nM | BEI (binding efficiency index) [3]: 3.70

CC(=O)NCC(=O)N[C@@H]1CCCCCCCC[C@@H](C(=O)N[C@@H](CC(C)C)C(=O)N[C@@H](CC(=O)O)C(=O)N[C@@H](CC(C)C)C(N)=O)NC(=O)[C@H](CC(=O)O)NC(=O)[C@H](CC(C)C)NC1=O [compound 7]
tR (retention time used for LogD determination) [1]: 11.70±0.007 min | chromatographic logD ([1]; pH 7.4): 0.63 ± 0.019

CC(=O)NCC(=O)N[C@@H]1CCCCCCCC[C@@](C)(C(=O)N[C@@H](CC(C)C)C(=O)N[C@@H](CC(=O)O)C(=O)N[C@@H](CC(C)C)C(N)=O)NC(=O)[C@H](CC(=O)O)NC(=O)[C@H](CC(C)C)NC1=O [compound 8]
tR (retention time used for LogD determination) [1]: 12.37±0.003 min | LogD ([1]; pH 7.4): 1.03±0.031

CC(=O)NCC(=O)N[C@]1(C)CCCCCCCC[C@@H](C(=O)N[C@@H](CC(C)C)C(=O)N[C@@H](CC(=O)O)C(=O)N[C@@H](CC(C)C)C(N)=O)NC(=O)[C@H](CC(=O)O)NC(=O)[C@H](CC(C)C)NC1=O [compound 9]
tR (retention time used for LogD determination) [1]: 12.35±0.003 min | chromatographic logD ([1]; pH 7.4): 1.01 ± 0.031 | Ki [4]: > 31600 nM

CC[C@@]1(C(=O)N[C@@H](CC(C)C)C(=O)N[C@@H](CC(=O)O)C(=O)N[C@@H](CC(C)C)C(N)=O)CCCCCCCC[C@@](C)(NC(=O)CNC(C)=O)C(=O)N[C@@H](CC(C)C)C(=O)N[C@@H](CC(=O)O)C(=O)N1 [compound 10]
tR (retention time used for LogD determination) [1]: 12.78±0.009 min | chromatographic logD ([1]; pH 7.4): 1.28 ± 0.04

CC[C@@]1(NC(=O)CNC(C)=O)CCCCCCCC[C@@](C)(C(=O)N[C@@H](CC(C)C)C(=O)N[C@@H](CC(=O)O)C(=O)N[C@@H](CC(C)C)C(N)=O)NC(=O)[C@H](CC(=O)O)NC(=O)[C@H](CC(C)C)NC1=O [compound 11]
tR (retention time used for LogD determination) [1]: 12.88±0.003 min | chromatographic logD ([1]; pH 7.4): 1.33 ± 0.041

CC[C@@]1(NC(=O)CNC(C)=O)CCCCCCCC[C@@](CC)(C(=O)N[C@@H](CC(C)C)C(=O)N[C@@H](CC(=O)O)C(=O)N[C@@H](CC(C)C)C(N)=O)NC(=O)[C@H](CC(=O)O)NC(=O)[C@H](CC(C)C)NC1=O [compound 12]
tR (retention time used for LogD determination) [1]: 12.92±0.001 min | chromatographic logD ([1]; pH 7.4): 1.35 | Δlog D relative to 5 (Me/Me) ([1]; pH 7.4): 0.09
